Test results from patent US12077503B2, “Substituted cyclic amides and their use as herbicides” (FMC CORPORATION, priority 2015, dated 2024).

Tests used:
Format in all cases: in vivo
Kochia (Kochia scoparia) [1] = assay: Test A preemergence; conditions: Bassia scoparia, pre-emergence, 240 h, 0 to 100 scale where 0 is no effect and 100 is complete control, read-out: Kochia plant response rating; for pest or weed control at 31 g/ha: 31 g ai/ha, Preemergence; for pest or weed control at 125 g/ha: 125 g ai/ha, preemergence, visual injury rating, approximately 10 d
How it was run: (§1)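 Compounds were formulated in a non-phytotoxic solvent mixture with surfactant and applied as a preemergence directed soil spray after seeding, or sprayed postemergence over plants 2 to 10 cm tall at the one- to two-leaf stage. Evaluation after about 10 d compared treated with untreated controls, using a scale from 0 (no effect) to 100 (complete control).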

[2] = tested on: barnyardgrass (Echinochloa crus-galli); assay: Test A preemergence; conditions: Echinochloa crus-galli, pre-emergence, 240 h, 0 to 100 scale where 0 is no effect and 100 is complete control, read-out: Barnyardgrass plant response rating; for pest or weed control at 31 g/ha: 31 g ai/ha, Preemergence; for pest or weed control at 125 g/ha: 125 g ai/ha, preemergence, visual injury rating, approximately 10 d
How it was run: as §1

[3] = tested on: giant foxtail (Setaria faberii); assay: Test A preemergence; conditions: Setaria faberi, pre-emergence, 240 h, 0 to 100 scale where 0 is no effect and 100 is complete control, read-out: Foxtail, Giant plant response rating; for pest or weed control at 31 g/ha: 31 g ai/ha, Preemergence; for pest or weed control at 125 g/ha: 125 g ai/ha, preemergence, visual injury rating, approximately 10 d
How it was run: as §1

[4] = tested on: pigweed (Amaranthus retroflexus); assay: Test A preemergence; conditions: Amaranthus retroflexus, pre-emergence, 240 h, 0 to 100 scale where 0 is no effect and 100 is complete control, read-out: Pigweed plant response rating; for pest or weed control at 31 g/ha: 31 g ai/ha, Preemergence; for pest or weed control at 125 g/ha: 125 g ai/ha, preemergence, visual injury rating, approximately 10 d
[5] = tested on: ragweed (common ragweed, Ambrosia elatior); assay: Test A preemergence; conditions: Ambrosia artemisiifolia, pre-emergence, 240 h, 0 to 100 scale where 0 is no effect and 100 is complete control, read-out: Ragweed plant response rating; for pest or weed control at 31 g/ha: 31 g ai/ha, Preemergence; for pest or weed control at 125 g/ha: 125 g ai/ha, preemergence, visual injury rating, approximately 10 d
How it was run: as §1

[6] = tested on: ryegrass, Italian (Italian ryegrass, Lolium multiflorum); assay: Test A preemergence; conditions: Lolium multiflorum, pre-emergence, 240 h, 0 to 100 scale where 0 is no effect and 100 is complete control, read-out: Ryegrass, Italian plant response rating; for pest or weed control at 31 g/ha: 31 g ai/ha, Preemergence; for pest or weed control at 125 g/ha: 125 g ai/ha, preemergence, visual injury rating, approximately 10 d
How it was run: as §1

[7] = tested on: Galium (catchweed bedstraw, Galium aparine); assay: Test A postemergence; conditions: Galium, post-emergence, 240 h, Postemergence, read-out: Galium plant response rating (0 to 100 scale); for pest or weed control at 125 g/ha: 125 g ai/ha, visual rating about 10 d after treatment; for pest or weed control at 31 g/ha: 31 g ai/ha, 0 is no effect, 100 is complete control
How it was run: as §1

Kochia (Kochia scoparia) [8] = assay: Test A postemergence; conditions: Bassia scoparia, post-emergence, 240 h, Postemergence, read-out: Kochia plant response rating (0 to 100 scale); for pest or weed control at 125 g/ha: 125 g ai/ha, visual rating about 10 d after treatment; for pest or weed control at 31 g/ha: 31 g ai/ha, 0 is no effect, 100 is complete control
How it was run: as §1

[9] = tested on: barnyardgrass (Echinochloa crus-galli); assay: Test A postemergence; conditions: Echinochloa crus-galli, post-emergence, 240 h, Postemergence; for pest or weed control at 125 g/ha: 125 g ai/ha, visual rating about 10 d after treatment, read-out: Barnyardgrass plant response rating (0 to 100 scale, 0 no effect, 100 complete control); for pest or weed control at 31 g/ha: 31 g ai/ha, 0 is no effect, 100 is complete control, read-out: Barnyardgrass plant response rating (0 to 100 scale)
How it was run: as §1

[10] = tested on: blackgrass (Alopecurus myosuroides); assay: Test A postemergence; conditions: Alopecurus myosuroides, post-emergence, 240 h, Postemergence, read-out: Blackgrass plant response rating (0 to 100 scale); for pest or weed control at 125 g/ha: 125 g ai/ha, visual rating about 10 d after treatment; for pest or weed control at 31 g/ha: 31 g ai/ha, 0 is no effect, 100 is complete control
How it was run: as §1

corn (Zea mays) = assay: Test A postemergence; conditions: Zea mays, post-emergence, 240 h, Postemergence, read-out: Corn plant response rating (0 to 100 scale); for plant injury at 125 g/ha: 125 g ai/ha, visual rating about 10 d after treatment; for plant injury at 31 g/ha: 31 g ai/ha, 0 is no effect, 100 is complete control
How it was run: as §1

[11] = tested on: giant foxtail (Setaria faberii); assay: Test A postemergence; conditions: Setaria faberi, post-emergence, 240 h, Postemergence, read-out: Foxtail, Giant plant response rating (0 to 100 scale); for pest or weed control at 125 g/ha: 125 g ai/ha, visual rating about 10 d after treatment; for pest or weed control at 31 g/ha: 31 g ai/ha, 0 is no effect, 100 is complete control
How it was run: as §1

[12] = tested on: pigweed (Amaranthus retroflexus); assay: Test A postemergence; conditions: Amaranthus retroflexus, post-emergence, 240 h, Postemergence, read-out: Pigweed plant response rating (0 to 100 scale); for pest or weed control at 125 g/ha: 125 g ai/ha, visual rating about 10 d after treatment; for pest or weed control at 31 g/ha: 31 g ai/ha, 0 is no effect, 100 is complete control
How it was run: as §1

[13] = tested on: ragweed (common ragweed, Ambrosia elatior); assay: Test A postemergence; conditions: Ambrosia artemisiifolia, post-emergence, 240 h, Postemergence, read-out: Ragweed plant response rating (0 to 100 scale); for pest or weed control at 125 g/ha: 125 g ai/ha, visual rating about 10 d after treatment; for pest or weed control at 31 g/ha: 31 g ai/ha, 0 is no effect, 100 is complete control
How it was run: as §1

[14] = tested on: ryegrass, Italian (Italian ryegrass, Lolium multiflorum); assay: Test A postemergence; conditions: Lolium multiflorum, post-emergence, 240 h, Postemergence, read-out: Ryegrass, Italian plant response rating (0 to 100 scale); for pest or weed control at 125 g/ha: 125 g ai/ha, visual rating about 10 d after treatment; for pest or weed control at 31 g/ha: 31 g ai/ha, 0 is no effect, 100 is complete control
How it was run: as §1

[15] = tested on: wheat (Triticum aestivum); assay: Test A postemergence; conditions: Triticum aestivum, post-emergence, 240 h, Postemergence, read-out: Wheat plant response rating (0 to 100 scale); for plant injury at 125 g/ha: 125 g ai/ha, visual rating about 10 d after treatment; for plant injury at 31 g/ha: 31 g ai/ha, 0 is no effect, 100 is complete control
How it was run: as §1

[16] = tested on: barnyardgrass (Echinochloa crus-galli); assay: Test B flooded paddy test; conditions: Echinochloa crus-galli, 250 g ai/ha, Flood; 0 to 100 scale where 0 is no effect and 100 is complete control; read-out: Barnyardgrass plant response rating
How it was run: (§2)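 Evaluation by eye, against controls, occurred 13–15 d post-treatment in a greenhouse, using a 0 (no effect) to 100 (complete control) scale. Application was into the paddy water, 3 cm deep over the soil, on 2-leaf plants.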

[17] = tested on: ducksalad (Heteranthera limosa); assay: Test B flooded paddy test; conditions: Heteranthera limosa, 250 g ai/ha, Flood; 0 to 100 scale where 0 is no effect and 100 is complete control; read-out: Ducksalad plant response rating
How it was run: as §2

rice (Oryra sativa) = assay: Test B flooded paddy test; conditions: Oryza sativa, 250 g ai/ha, Flood; 0 to 100 scale where 0 is no effect and 100 is complete control; read-out: Rice plant response rating
How it was run: as §2

[18] = tested on: sedge, umbrella (small-flower umbrella sedge, Cyperus difformis); assay: Test B flooded paddy test; conditions: Cyperus difformis, 250 g ai/ha, Flood; 0 to 100 scale where 0 is no effect and 100 is complete control; read-out: Sedge, Umbrella plant response rating
How it was run: as §2

| SMILES | pest or weed control at 31 g/ha (Kochia (Kochia scoparia) [1]) [%] | pest or weed control at 125 g/ha (Kochia (Kochia scoparia) [1]) [%] | pest or weed control at 31 g/ha [2] [%] | pest or weed control at 125 g/ha [2] [%] | pest or weed control at 31 g/ha [3] [%] | pest or weed control at 125 g/ha [3] [%] | pest or weed control at 31 g/ha [4] [%] | pest or weed control at 125 g/ha [4] [%] | pest or weed control at 31 g/ha [5] [%] | pest or weed control at 125 g/ha [5] [%] | pest or weed control at 31 g/ha [6] [%] | pest or weed control at 125 g/ha [6] [%] | pest or weed control at 125 g/ha [7] [%] | pest or weed control at 31 g/ha [7] [%] | pest or weed control at 125 g/ha (Kochia (Kochia scoparia) [8]) [%] | pest or weed control at 31 g/ha (Kochia (Kochia scoparia) [8]) [%] | pest or weed control at 125 g/ha [9] [%] | pest or weed control at 31 g/ha [9] [%] | pest or weed control at 125 g/ha [10] [%] | pest or weed control at 31 g/ha [10] [%] | further results |
| --- | --- | --- | --- | --- | --- | --- | --- | --- | --- | --- | --- | --- | --- | --- | --- | --- | --- | --- | --- | --- | --- |
| CN1C[C@H](c2csc3c2CCCC3)[C@@H](C(=O)Nc2ccccc2F)C1=O [Compound 1275] | 0 | 20 | 70 | 100 | 90 | 100 | 0 | 0 | 0 | 20 | 0 | 0 | 0 | 0 | 0 | 0 | 90 | 30 | 0 | 0 | plant injury at 125 g/ha (corn (Zea mays)): 0%; plant injury at 31 g/ha (corn (Zea mays)): 0%; pest or weed control at 125 g/ha [11]: 70%; pest or weed control at 31 g/ha [11]: 20%; pest or weed control at 125 g/ha [12]: 0%; pest or weed control at 31 g/ha [12]: 0%; pest or weed control at 125 g/ha [13]: 0%; pest or weed control at 31 g/ha [13]: 0%; pest or weed control at 125 g/ha [14]: 0%; pest or weed control at 31 g/ha [14]: 0%; plant injury at 125 g/ha [15]: 0%; plant injury at 31 g/ha [15]: 0%; pest or weed control at 250 g/ha [16]: 75%; pest or weed control at 250 g/ha [17]: 90%; pest or weed control at 250 g/ha (rice (Oryra sativa)): 20%; pest or weed control at 250 g/ha [18]: 0% |
| CN1C[C@H](c2csc3c2CCC3)[C@@H](C(=O)Nc2cccc(F)c2F)C1=O [Compound 1278] | 30 | 30 | 80 | 100 | 100 | 100 | 0 | 90 | 20 | 100 | 0 | 30 | 0 | 0 | 20 | 0 | 100 | 70 | 0 | 0 | plant injury at 125 g/ha (corn (Zea mays)): 0%; plant injury at 31 g/ha (corn (Zea mays)): 0%; pest or weed control at 125 g/ha [11]: 80%; pest or weed control at 31 g/ha [11]: 50%; pest or weed control at 125 g/ha [12]: 0%; pest or weed control at 31 g/ha [12]: 0%; pest or weed control at 125 g/ha [13]: 30%; pest or weed control at 31 g/ha [13]: 0%; pest or weed control at 125 g/ha [14]: 0%; pest or weed control at 31 g/ha [14]: 0%; plant injury at 125 g/ha [15]: 0%; plant injury at 31 g/ha [15]: 0%; pest or weed control at 250 g/ha [16]: 60%; pest or weed control at 250 g/ha [17]: 90%; pest or weed control at 250 g/ha (rice (Oryra sativa)): 35%; pest or weed control at 250 g/ha [18]: 0% |
